Data published in patent publication US10189887B2, “Polypeptides and uses thereof for reducing CD95-mediated cell motility” (INSERM (INSTITUT NATIONAL DE LA SANTÉ ET DE LA RECHERCHE …, priority 2014, dated 2019).

Assays:
Assay type in all cases: cell-based
[1] = tested on: PLCγ1-dependent Ca^2+ response to TCR stimulation; test: Ca^2+ response to TCR stimulation (selectivity); details: TAT-CID pretreatment
Experimental: T cells were loaded with Fura-PE3-AM (1 μM) at room temperature for 30 min in Hank's Balanced Salt Solution (HBSS). After washing, the cells were incubated for 15 min in the absence of Fura-PE3-AM to complete de-esterification of the dye. Cells were placed in the temperature controlled chamber (37° C.) of an inverted epifluorescence microscope (Olympus IX70) equipped with an ×40 UApo/340-1.15 W water-immersion objective (Olympus), and fluorescence micrograph images were captured at 510 nm and 12-bit resolution by a fast-scan camera (CoolSNAP fx Monochrome, Photometrics). To minimize UV light exposure, a 4×4 binning function was used. Fura-PE3 was alternately excited at 340 and 380 nm, and the ratios of the resulting images (emission filter at 520 nm) were produced at constant intervals (10 seconds). The Fura-PE3 ratio (Fratio 340/380) images were analyzed offline with Universal Imaging software, including Metafluor and Metamorph. Fratio reflects the intracellular Ca^2+ concentration changes. Each experiment was repeated 3 times, and the average of more than 20 single-cell traces was analyzed.

CD95/PLCγ1 = molecular target: T1, CD95/PLCγ1 (Homo sapiens, UniProt P19174); test: PLCγ1 recruitment to CD95 (immunoprecipitation and immunoblotting)
T1 construct: endogenous in cells; host or cells: CEM (human leukemic T-cell line)
T1 sequence (P19174 2-1290 limits assumed): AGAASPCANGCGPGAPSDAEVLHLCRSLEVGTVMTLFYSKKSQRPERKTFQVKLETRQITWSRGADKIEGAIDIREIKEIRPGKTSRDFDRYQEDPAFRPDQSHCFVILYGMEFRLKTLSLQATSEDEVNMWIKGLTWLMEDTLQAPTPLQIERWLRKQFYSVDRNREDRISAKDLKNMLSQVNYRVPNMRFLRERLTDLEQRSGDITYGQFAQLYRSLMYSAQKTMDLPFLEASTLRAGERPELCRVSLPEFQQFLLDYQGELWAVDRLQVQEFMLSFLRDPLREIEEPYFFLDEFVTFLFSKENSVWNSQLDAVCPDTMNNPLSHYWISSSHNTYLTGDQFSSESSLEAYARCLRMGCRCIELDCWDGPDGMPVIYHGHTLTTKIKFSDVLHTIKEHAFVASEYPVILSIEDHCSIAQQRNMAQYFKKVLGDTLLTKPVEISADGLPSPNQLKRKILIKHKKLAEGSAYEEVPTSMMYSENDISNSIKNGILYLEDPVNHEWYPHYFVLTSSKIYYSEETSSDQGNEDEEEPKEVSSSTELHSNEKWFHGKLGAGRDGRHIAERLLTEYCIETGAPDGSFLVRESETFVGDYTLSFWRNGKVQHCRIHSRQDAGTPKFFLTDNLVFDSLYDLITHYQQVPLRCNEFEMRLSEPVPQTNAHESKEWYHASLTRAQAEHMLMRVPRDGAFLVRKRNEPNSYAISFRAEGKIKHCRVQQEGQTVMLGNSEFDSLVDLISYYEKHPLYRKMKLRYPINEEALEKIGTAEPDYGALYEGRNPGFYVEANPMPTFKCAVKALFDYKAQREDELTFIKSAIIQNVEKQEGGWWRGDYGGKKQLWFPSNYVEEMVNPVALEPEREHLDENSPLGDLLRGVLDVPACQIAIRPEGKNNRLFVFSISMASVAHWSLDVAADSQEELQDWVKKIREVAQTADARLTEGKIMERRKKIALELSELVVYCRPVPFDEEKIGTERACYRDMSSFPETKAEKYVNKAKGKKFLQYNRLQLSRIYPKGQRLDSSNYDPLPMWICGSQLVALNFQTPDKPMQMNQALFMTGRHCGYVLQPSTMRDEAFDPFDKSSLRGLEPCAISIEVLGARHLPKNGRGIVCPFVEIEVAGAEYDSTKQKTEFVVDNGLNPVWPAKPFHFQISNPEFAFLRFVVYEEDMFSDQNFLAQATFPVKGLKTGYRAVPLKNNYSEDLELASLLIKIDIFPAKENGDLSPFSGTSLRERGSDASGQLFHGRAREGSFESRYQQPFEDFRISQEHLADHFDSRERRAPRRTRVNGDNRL
Experimental: T-cells (5×10^7 cells per condition) were stimulated with Ig-CD95L or cl-CD95L (100 ng/mL) for indicated times at 37° C. Cells were lysed, incubated with APO1.3 (1 ug/mL) for 15 min at 4° C. and CD95 was immunoprecipitated using A/G protein-coupled magnetic beads (Ademtech, Pessac, France) for 1 h. After extensive washing, the immune complex was resolved by SDS-PAGE and immunoblotting was performed with indicated antibodies.
Cells were lyzed for 30 minutes at 4° C. in lysis buffer (25 mM HEPES pH 7.4, 1% v/v Triton X-100, 150 mM NaCl, 2 mM EGTA supplemented with a mix of protease inhibitors (Sigma-Aldrich)). Protein concentration was determined by the bicinchoninic acid method (PIERCE, Rockford, Ill., USA) according to the manufacturer's protocol. Proteins were separated on a 12% SDS-PAGE and transferred to a nitrocellulose membrane (GE Healthcare, Buckinghamshire, England). The membrane was blocked 15 minutes with TBST (50 mM Tris, 160 mM NaCl, 0.05% v/v Tween 20, pH 7.8) containing 5% w/v dried skimmed milk (TBSTM). Primary antibody was incubated overnight at 4° C. in TBSTM. The membrane was intensively washed (TBST) and then the peroxydase-labeled anti-rabbit or anti-mouse (SouthernBiotech, Birmingham, Ala., US) was added for 45 minutes. The proteins were visualized with the enhanced chemiluminescence substrate kit (ECL, GE Healthcare).

murin CD95 = test: Calcium response in mouse CD95-expressing CEM-IRC cells; details: CEM-IRC cells reconstituted with wild type mouse CD95
[2] = tested on: apoptotic signaling pathway; test: CD95 apoptotic signaling pathway; details: TAT-CID treatment

- PLCγ1 recruitment to CD95 (CD95/PLCγ1; T cell lines Jurkat and CEM pre-incubated 1 h with 10 μM, cl-CD95L 100 ng/mL): impaired PLCγ1 recruitment
- PLCγ1 binding to CD95 (CD95/PLCγ1; activated T lymphocytes from healthy subjects, pre-incubation): inhibited the PLCγ1 binding to CD95
Substance: TAT-CID: cell penetrating peptide linking the 36-amino acid-stretch of CID (CD95 residues 175 to 210) to the HIV-TAT sequence; SEQ ID NO: 6 (RKKRRQRRRKRKEVQKTCRKHRKENQGSHESPTLNPETVAINLSD; TAT-CID)
- PLCγ1-dependent Ca^2+ response to TCR stimulation [1]: did not alter this signal
- CD95-mediated Ca^2+ response (murin CD95): failed to inhibit the CD95-mediated Ca^2+ response
- execution of the apoptotic signaling pathway [2]: did not affect the execution of the apoptotic signaling pathway
